In article PMC5062570 (Nature Communications, 2016):
Entries after “also recorded” stand apart in the source; their conditions may differ. Where two headings read alike, the source gives them in different places.

What was measured:
[1] = tested on: retinal pigment epithelium (RPE); design: method as in PMID 22090477, PMID 25361751; settings: cited from earlier work
BACE2 = target: T1, BACE2 (Homo sapiens, UniProt Q9Y5Z0); assay: BACE2 purified enzyme fluorescence polarization assay; type: biochemical
T1 construct: purchased R&D Systems 4097-AS
T1 sequence (Q9Y5Z0 63-518): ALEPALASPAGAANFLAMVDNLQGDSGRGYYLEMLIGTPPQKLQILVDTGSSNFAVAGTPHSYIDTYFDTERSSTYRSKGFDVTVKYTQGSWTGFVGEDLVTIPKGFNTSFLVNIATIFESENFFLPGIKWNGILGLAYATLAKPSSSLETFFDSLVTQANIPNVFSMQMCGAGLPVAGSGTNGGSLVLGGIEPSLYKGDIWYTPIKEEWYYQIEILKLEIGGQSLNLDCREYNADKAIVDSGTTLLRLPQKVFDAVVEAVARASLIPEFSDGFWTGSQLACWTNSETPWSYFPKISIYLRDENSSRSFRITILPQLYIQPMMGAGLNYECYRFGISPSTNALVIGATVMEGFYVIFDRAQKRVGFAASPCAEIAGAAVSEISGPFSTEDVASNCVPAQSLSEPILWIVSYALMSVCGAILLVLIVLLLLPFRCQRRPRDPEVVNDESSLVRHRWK
Description: (§1) Purified enzyme inhibition of BACE1, BACE2, CatD and CatE was determined using fluorescence polarization (FP) assays. Briefly, purified enzymes were treated with test compounds (1% DMSO, 37 °C) in the presence of synthetic peptide substrates (150 nM) in 30 μl total volume of NaOAc buffer (100 mM, pH 4.5, 0.0001% Tween-20) in a 384-well plate. After incubation, reactions were stopped and substrate captured by the addition of 1.5 μM streptavidin, and FP measured with an EnVision plate reader (PerkinElmer, excitation 485 nm, emission 530 nm). […] BACE2 activity was assessed with 0.5 nM recombinant BACE2 (R&D Systems 4097-AS) and the same synthetic substrate used for BACE1, with a 1 h incubation time. […] CatE activity was assessed with 1.0 nM recombinant CatE (Creative BioMart CTSE-255H) and the same synthetic substrate used for CatD, with a 1.5 h incubation time.

[2] = target: T2, ~30 kDa band (CatD heavy chain) in ARPE-19 cells (Homo sapiens, UniProt P07339); assay: Live cell PF-7802 labelling, in-gel fluorescence analysis; type: cell-based; settings: pretreatment 2 µM inhibitor, PF-7802 100 nM
T2 construct: host or cells: ARPE-19
T2 sequence (P07339 169-412 limits assumed): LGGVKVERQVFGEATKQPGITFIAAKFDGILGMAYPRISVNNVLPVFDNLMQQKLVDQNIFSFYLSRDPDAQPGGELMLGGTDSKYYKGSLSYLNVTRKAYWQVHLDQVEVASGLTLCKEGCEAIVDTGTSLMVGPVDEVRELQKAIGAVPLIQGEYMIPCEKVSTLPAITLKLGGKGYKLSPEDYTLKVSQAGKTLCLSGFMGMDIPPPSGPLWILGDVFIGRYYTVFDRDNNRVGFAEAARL
T2 sequence (P07339 65-162 limits assumed): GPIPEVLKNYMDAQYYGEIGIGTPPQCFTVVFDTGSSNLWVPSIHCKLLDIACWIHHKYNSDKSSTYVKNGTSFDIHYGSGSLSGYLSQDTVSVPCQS
Description: Cells were lysed with sonication on ice in 70 μl DPBS and protein concentrations were determined using a BCA assay (Pierce). […] Gels were fixed in 50% MeOH/7% AcOH for 15 min, then rinsed with 40% MeOH for at least 20 min before in-gel fluorescence scanning (Typhoon Trio, excitation 532 nm, emission 580 nm).

[3] = tested on: CatD protein level in ARPE-19 cells; assay: Chronic ARPE-19 inhibitor treatment and CatD ELISA; type: cell-based, human; settings: 300 pM-10 μM, 7 days
Description: ARPE-19 cells were plated in 96-well plates at a density of 2 × 10^4 cells per well. After 12–24 h, media was removed and replaced with media containing test compounds at the indicated concentration. After 7 days of compound incubation (no media changes or additional test compound treatments), conditioned media was collected for a cytotoxicity assay, and attached cells were washed once with DPBS and then lysed on ice with gentle pipetting followed by a 20 min extraction in 50 μl in ice-cold RIPA buffer (50 mM Tris, pH 7.4, 150 mM NaCl, 1 mM EDTA, 1% NP40, 1% Na deoxycholate, 0.1% SDS) supplemented with 1 mM PMSF (Sigma) and EDTA-free protease inhibitor cocktail tablets (Roche). Cytotoxicity was determined from conditioned media using an LDH assay (Pierce 88954) as per the manufacturer's protocol. CatD protein levels were measured by ELISA (EMD Millipore Q1A29) as per the manufacturer's protocol. For both the LDH assay and the ELISA, absorbance was read on an EnVision plate reader (PerkinElmer). Data were normalized to DMSO and plotted in GraphPad Prism.

BACE1 [4] = target: T3, BACE1 (Homo sapiens, UniProt P56817); assay: BACE1 purified enzyme fluorescence polarization assay; type: biochemical; design: His (C); made in house; host or cells: CHO-K1
Description: as §1
Target sequence in this assay (P56817 46-457): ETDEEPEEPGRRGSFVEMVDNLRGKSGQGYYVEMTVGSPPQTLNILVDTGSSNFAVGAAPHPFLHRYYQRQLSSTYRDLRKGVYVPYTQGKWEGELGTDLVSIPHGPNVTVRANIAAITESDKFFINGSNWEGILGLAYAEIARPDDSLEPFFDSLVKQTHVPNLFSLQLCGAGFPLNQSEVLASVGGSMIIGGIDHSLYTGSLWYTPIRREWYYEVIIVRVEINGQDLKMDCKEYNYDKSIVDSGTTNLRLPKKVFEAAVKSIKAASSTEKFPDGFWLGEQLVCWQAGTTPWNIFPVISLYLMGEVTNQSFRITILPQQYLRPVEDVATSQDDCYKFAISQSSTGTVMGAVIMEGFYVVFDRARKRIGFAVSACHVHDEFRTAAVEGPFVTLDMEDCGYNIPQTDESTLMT

CatD [5] = target: T4, CatD (Homo sapiens, UniProt P07339); assay: CatD purified enzyme fluorescence polarization assay; type: biochemical; design: final maturation into a non-covalently associated heavy chain and light chain; purchased Sigma C8696; host or cells: human liver
Description: as §1
Target sequence in this assay (P07339 65-162 limits assumed): as the sequence (P07339 65-162 limits assumed) above
Target sequence in this assay (P07339 169-412 limits assumed): as the sequence (P07339 169-412 limits assumed) above

[6] = pKa determination by multiplexed capillary electrophoresis; type: physicochemical; settings: aqueous buffers
Description: All pKa values were determined at Analiza, Inc. by multiplexed capillary electrophoresis (mCE) using 96-capillary array electrophoresis instrument to measure the effective mobility (migration time of the compound in relation to neutral marker, DMSO) with ultraviolet detection. The pKa values were obtained from the ionization curves by plotting the compound effective mobility (24 points across pH range 1.7–11.2) versus pH. All pKa results were determined using aqueous buffers with method average absolute error 0.12.

[7] = tested on: retinal pigment epithelium (RPE); assay: Exploratory toxicology, ocular toxicity by retinal histology in rats; type: in vivo; settings: rat
Description: (§2) Wistar Han rats (obtained from Charles River, 125–300 g, 6–9 weeks old at study start, see Supplementary Table 7 for number of males and females) received daily oral dosing of test compounds or vehicle at the indicated concentrations for 7–29 days as indicated. The doses were prepared in a solution of 0.5% methylcellulose and 0.2% polysorbate 80, or 0.5% methylcellulose and hydroxypropyl methylcellulose acetate succinate (high fine grade) and delivered in a volume of 10 ml kg^−1 per day. Blood samples for bioanalytical analysis were collected in K2EDTA tubes via jugular vessel. Plasma was isolated after centrifugation and stored at −20 °C prior to analysis. Animals were given an additional dose the day after the end of the study (days 8, 15 or 30 for 7, 14 and 29 day studies, respectively) then killed by gas anaesthesia (isoflurane) followed by exsanguination ∼3 h after this final dose.

[8] = Plasma exposure (average unbound plasma concentration) in rats; type: in vivo, rat; settings: rat; for concentration at 7 days: Wistar Han, oral; for concentration at 7 days / concentration at 29 days: average unbound plasma concentration, read-out: Avg Cp,u parent; for concentration at 29 days / Avg Cp,u metabolite: 14 days; for Avg Cp,u metabolite: metabolite of the dosed compound
Description: as §2
Plasma samples were analysed after protein precipitation by treating 20 μl of sample matrix with 200 μl of acetonitrile containing internal standard. All samples were centrifuged at 3,000 r.p.m. for 5 min. Then 100 μl of supernatant was transferred to a clean plate and evaporated to dryness under N2. Samples were reconstituted in 200 μl of 80:20 (v:v) acetonitrile:water. Samples were analysed on Waters Acquity UPLC connected to AB Sciex API5500 QTrap MS/MS.
Plasma protein binding was determined in the Rapid Equilibrium Device (RED, Thermo Scientific). Frozen plasma was warmed to 37 °C and adjusted to pH 7.4. The plasma was spiked with compound to a final concentration of 2 μM. Aliquots of spiked plasma were added to the donor (red) side, followed by addition of buffer to the receiver (white) side. The RED device was covered with a gas-permeable membrane and agitated within a humidified CO2 incubator (5% CO2, 75% relative humidity). Plasma (15 μl) and buffer (45 μl) were sampled from each insert and were matrix-matched with appropriate blank matrix (plasma with 45 μl buffer and buffer with 15 μl of plasma). Samples were protein-precipitated with acetonitrile containing internal standard, and the resulting supernatant was analysed by LC-MS/MS.

CatD [9] = target: T4, CatD; assay: CatD cellular assay (competition of PF-7802 photolabelling in live ARPE-19 cells); type: cell-based; design: host or cells: ARPE-19; settings: for CatD potency increase in live cells: CatD enzyme IC50 versus CatD cellular IC50
Description: ARPE-19 cells were plated at a density of 1.2 × 10^6 cells per well in six-well dishes 12–24 h before probe labelling. Culture media was removed completely and replaced with 1 ml of the appropriate serum-free media (no supplements) per well. Cells were then pretreated with test compounds at the indicated concentrations for 30 min (0.5% DMSO, 37 °C, 5% CO2). […] Ultraviolet irradiation was performed without culture plate lids for efficient irradiation, and samples were slowly rotated to prevent evaporation. After ultraviolet irradiation, cells were washed twice with Dulbecco's phosphate-buffered saline (DPBS), scraped into DPBS, centrifuged and stored as pellets at −80 °C.
Cells were lysed with sonication on ice in 70 μl DPBS and protein concentrations were determined using a BCA assay (Pierce). Total protein concentrations were then normalized to 1 mg ml^−1 in 50 μl total volume before addition of 5.5 μl click chemistry mix (1 : 3 : 1 : 0.5 volume of 50 mM CuSO4 (Sigma) in H2O : 1.7 mM TBTA (Sigma) in 4:1 t-BuOH:DMSO : 50 mM TCEP (Hampton Research) in dPBS : 10 mM TAMRA-azide (Lumiprobe) in DMSO - mixed immediately before use. Reagent solutions can be premade and stored at 4 °C except for TCEP, which should be made immediately before use). […] All fluorescence gels are presented in greyscale.
Target sequence in this assay (P07339 169-412 limits assumed): as above
Target sequence in this assay (P07339 65-162 limits assumed): as the sequence (P07339 65-162 limits assumed) above

BACE1 [10] = target: T3, BACE1; assay: BACE1 biochemical cellular assay (sAPPβ ELISA in H4 cells overexpressing APP695); type: cell-based; design: endogenous in cells; host or cells: H4 human neuroglioma cells overexpressing human APP695; settings: for BACE1 potency increase in live cells: BACE1 enzyme IC50 versus BACE1 cellular IC50
Description: Cellular inhibition of BACE1 was determined by measuring sAPPβ, the primary cleavage product of BACE-1, in H4 human neuroglioma cells overexpressing the wild-type human APP695. […] The colorimetric reaction was read by an EnVision plate reader (PerkinElmer).
Target sequence in this assay (P56817 46-501): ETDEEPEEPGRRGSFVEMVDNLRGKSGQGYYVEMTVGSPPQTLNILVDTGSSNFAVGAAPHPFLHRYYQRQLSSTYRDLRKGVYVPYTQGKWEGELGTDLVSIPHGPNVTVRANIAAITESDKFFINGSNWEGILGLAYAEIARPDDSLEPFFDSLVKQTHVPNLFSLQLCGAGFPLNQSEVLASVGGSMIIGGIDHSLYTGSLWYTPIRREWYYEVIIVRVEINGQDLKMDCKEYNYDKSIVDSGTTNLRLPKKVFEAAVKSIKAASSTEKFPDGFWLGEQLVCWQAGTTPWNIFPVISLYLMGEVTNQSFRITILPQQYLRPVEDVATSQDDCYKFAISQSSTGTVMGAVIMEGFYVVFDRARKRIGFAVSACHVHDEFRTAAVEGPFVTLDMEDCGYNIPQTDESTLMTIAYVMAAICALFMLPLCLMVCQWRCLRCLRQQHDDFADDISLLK

[11] = In vivo metabolism of BACE1 inhibitors in rats; design: species or system rat
[12] = 14 days, 110 mg kg-1 once daily

## CC1(C#Cc2cnc3c(c2)[C@]2(COC(N)=N2)c2cc(-c4cccnc4F)ccc2O3)COC1 [AMG-8718, (S)-7-(2-Fluoropyridin-3-yl)-3-((3-methyloxetan-3-yl)ethynyl)-5′H-spiro[chromeno[2,3-b]pyridine-5,4′-oxazol]-2′-amine]
[1]
  Ocular toxicity in preclinical animal models: ocular toxicity in preclinical animal models

## CNC1CCN(C(=O)C[C@@H](Cc2ccccc2)C(=O)N[C@@H](CSC)C(=O)N[C@@H](CC2CCCCC2)[C@@H](O)C(=O)OC(C)C)CC1 [CP-108671, reference compound]
BACE2
  BACE2 activity: no activity
[2]
  Competition of PF-7802 labelling of the 30 kDa band: blocked labelling of the 30 kDa band
[3]
  CatD protein accumulation (ELISA): could be reproduced
BACE1 [4]
  BACE1 activity: no BACE1 activity
CatD [5]; purified CatD biochemical substrate assay
  Inhibition of purified CatD: potent; also recorded: nanomolar potency

## C[C@@]1(c2cc(-c3cncnc3)c(F)cc2F)CCSC(N)=N1 [LY2811376, reference compound]
[6]; read-out: pKa
  pKa: 8.9
[2]
  Competition of PF-7802 labelling of the 30 kDa band: blocked labelling of the 30 kDa band
[7]; 7 days, 25 mg kg-1 once daily
  Male ocular toxicity incidence (positive or negative animals / total evaluated): 1/4
  Male ocular toxicity outcome: Pos
[7]; 7 days, 75 mg kg-1 once daily
  Male ocular toxicity incidence (positive or negative animals / total evaluated): 4/4
  Male ocular toxicity outcome: Pos
[8]; 25 mg kg-1 once daily
  concentration at 7 days: 0.741 µM
[8]; 75 mg kg-1 once daily
  concentration at 7 days: 4.37 µM
[1]
  Ocular toxicity in preclinical animal models: ocular toxicity in preclinical animal models
CatD [9]
  CatD potency difference between cell-free enzyme and cellular assays: 95 fold
  CatD potency increase in live cells: 95 x
BACE1 [10]
  BACE1 potency increase in live cells: 18 x

## Cc1coc([C@H]2C[C@H]3[C@@H](CF)SC(N)=N[C@@]3(c3ccc(F)cc3F)CO2)n1 [PF-1283]
BACE2; purified human enzyme, fluorescence polarization
  IC50: 0.095 µM
[6]
  pKa: 7.0
[7]; 14 days, 45 mg kg-1 once daily
  Female ocular toxicity incidence (positive or negative animals / total evaluated): 3/3
  Female ocular toxicity outcome: Neg (negative (neg) if there was no ocular abnormality observed)
  Male ocular toxicity incidence (positive or negative animals / total evaluated): 3/3
  Male ocular toxicity outcome: Neg (negative (neg) if there was no ocular abnormality observed)
[7]; [12]
  Female ocular toxicity incidence (positive or negative animals / total evaluated): 1/3
  Female ocular toxicity outcome: Pos
  Male ocular toxicity incidence (positive or negative animals / total evaluated): 3/3
  Male ocular toxicity outcome: Neg (negative (neg) if there was no ocular abnormality observed)
[8]; 45 mg kg-1 once daily
  concentration at 29 days: 0.109 µM
  Avg Cp,u metabolite: 0.352 µM
[8]; 110 mg kg-1 once daily
  concentration at 29 days: 0.793 µM
  Avg Cp,u metabolite: 0.859 µM
[11]
  Stability to oxidative metabolism: significantly more stable to oxidative metabolism; also recorded: significantly less susceptible to oxidative metabolism
CatD [9]
  CatD potency increase in live cells: 54 x
CatD [9]; live ARPE-19 cells, PF-7802 photoprobe 100 nM, 30 min
  IC50: 0.24 µM
BACE1 [4]; purified human enzyme, fluorescence polarization, peptide substrate
  IC50: 0.12 µM
BACE1 [10]
  BACE1 potency increase in live cells: 12 x
BACE1 [10]; sAPPβ ELISA, H4 neuroglioma cells with human wild-type APP
  IC50: 0.01 µM
CatD [5]; purified human enzyme, fluorescence polarization, substrate-based
  IC50: 13 µM
